These results are taken from patent US20250177429A1, “ORALLY ACTIVE PRODRUG OF GEMCITABINE” (Laevoroc Chemotherapy AG, priority 2022, published 2025).

The nature of data set [1]: Solubility of the mono-hydrochloride salt in water and buffer solutions. It counts as physicochemical. Particulars: thermodynamic from solid; for solubility at 15 min: solid added until saturation. On the procedure: In each case, a first estimation was performed by adding small amounts of solvents until dissolution of the solid (50 mg), followed by a second estimation performed through the addition of small amounts of solid to a determined quantity of solvent until saturation was reached (suspension observed after 15 min). This second estimation was undertaken twice for each solution.

A short description of data set [2]: Stability in aqueous media at RT. It counts as physicochemical. The text has this: Regarding to the MS profile, most of the observed impurities concern a valproic moiety cleavage and/or valine moiety migration/cleavage. […] In agreement with earlier observation, a lower acidity medium will likely result in a higher ratio of valine hydrolysis.
Data set [3] can be described thus: Powder stability of the API on storage. It counts as physicochemical. Particulars: powder form of the API, FIG. 3.
The next data set has as its system Japanese patients. The note with it: phase I, 2013; cited from earlier work.
The target of another data set is CDA (Homo sapiens, UniProt P32320). Particulars: Bender et al. 2009; cited from earlier work.
Another data set relates to mice. Particulars: cited from earlier work.
For data set [4] the following is noted: result of first pass metabolism; Shipley et al. 1992; cited from earlier work.

Where two headings read alike, the source gives them in different places.

Sequence of CDA (P32320 whole entry, species assumed): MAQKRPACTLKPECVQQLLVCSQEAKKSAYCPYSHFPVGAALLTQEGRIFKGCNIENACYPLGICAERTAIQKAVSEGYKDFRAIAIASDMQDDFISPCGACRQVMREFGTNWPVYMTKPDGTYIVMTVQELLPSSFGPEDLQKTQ

As usually defined, the solubility is how much of the substance goes into solution per volume. In the case of `CCCC(CCC)C(=O)Nc1ccn([C@@H]2O[C@H](CO)[C@@H](OC(=O)[C@@H](N)C(C)C)C2(F)F)c(=O)n1.Cl` [LR-06-B.HCl, (2R,3R,5R)-4,4-difluoro-2-(hydroxymethyl)-5-(2-oxo-4-(2-propylpentanamido)-1,2-dihydropyrimidin-1-yl)oxolan-3-yl (2S)-2-amino-3-methylbutanoate hydrochloride], the solubility in data set [1] (buffer solution pH 1.2, pH 1.2, simulated gastric fluid, Buffer pH 1.2, read-out: Mean solubility) is 211 mg/mL; in data set [1] (buffer solution pH 1.2, pH 1.2, simulated gastric fluid, Buffer pH 1.2, solvent added until dissolution of 50 mg solid, read-out: Solubility, Estimation 1), 207 mg/mL; in data set [1] (buffer solution pH 4.5, pH 4.5, aqueous buffer, Buffer pH 4.5, read-out: Mean solubility) it was 227 mg/mL; in data set [1] (buffer solution pH 4.5, pH 4.5, aqueous buffer, Buffer pH 4.5, solvent added until dissolution of 50 mg solid, read-out: Solubility, Estimation 1), 213 mg/mL; in data set [1] (buffer solution pH 6.8, pH 6.8, aqueous buffer, Buffer pH 6.8, read-out: Mean solubility), 275 mg/mL; in data set [1] (buffer solution pH 6.8, pH 6.8, aqueous buffer, Buffer pH 6.8, solvent added until dissolution of 50 mg solid, read-out: Solubility, Estimation 1) it was 241 mg/mL. For the same compound, the solubility is 394 mg/mL in data set [1] (water, Water, read-out: Mean solubility) and 257 mg/mL in data set [1] (water, Water, solvent added until dissolution of 50 mg solid, read-out: Solubility, Estimation 1). Also, the solubility at 15 min is 217 mg/mL in data set [1] (buffer solution pH 1.2, pH 1.2, simulated gastric fluid, Buffer pH 1.2, read-out: Solubility, Estimation 2a); 208 mg/mL in data set [1] (buffer solution pH 1.2, pH 1.2, simulated gastric fluid, Buffer pH 1.2, read-out: Solubility, Estimation 2b); 236 mg/mL in data set [1] (buffer solution pH 4.5, pH 4.5, aqueous buffer, Buffer pH 4.5, read-out: Solubility, Estimation 2a); 233 mg/mL in data set [1] (buffer solution pH 4.5, pH 4.5, aqueous buffer, Buffer pH 4.5, read-out: Solubility, Estimation 2b); 302 mg/mL in data set [1] (buffer solution pH 6.8, pH 6.8, aqueous buffer, Buffer pH 6.8, read-out: Solubility, Estimation 2a); 280 mg/mL in data set [1] (buffer solution pH 6.8, pH 6.8, aqueous buffer, Buffer pH 6.8, read-out: Solubility, Estimation 2b). For the same compound, the solubility at 15 min in data set [1] (water, Water, read-out: Solubility, Estimation 2a) is 463 mg/mL; in data set [1] (water, Water, read-out: Solubility, Estimation 2b), 462 mg/mL. The “Stability in aqueous media at RT” value worked out at 97.06% in data set [2] (Water, 30 Min); 96.98% in data set [2] (Water, 1 hour); 96.89% in data set [2] (Water, 2 hours); 96.62% in data set [2] (Water, 4 hours); 96.42% in data set [2] (Water, 6 hours); 94.45% in data set [2] (Water, 1 day). Further, the “Stability in aqueous media at RT” value came to 91.07% in data set [2] (Water, 2 days); 77.12% in data set [2] (Water, 7 days); 97.21% in data set [2] (Water, time 0 (API Powder)); 97.03% in data set [2] (pH 1.2, 30 Min); 96.83% in data set [2] (pH 1.2, 1 hour); 96.42% in data set [2] (pH 1.2, 2 hours). The “Stability in aqueous media at RT” value is reported as 95.71% in data set [2] (pH 1.2, 4 hours); 95.14% in data set [2] (pH 1.2, 6 hours); 88.40% in data set [2] (pH 1.2, 1 day); 80.05% in data set [2] (pH 1.2, 2 days); 30.60% in data set [2] (pH 1.2, 7 days); 97.21% in data set [2] (pH 1.2, time 0 (API Powder)). In addition, the “Stability in aqueous media at RT” value worked out at 96.45% in data set [2] (pH 4.5, 30 Min); 96.35% in data set [2] (pH 4.5, 1 hour); 96.24% in data set [2] (pH 4.5, 2 hours); 95.46% in data set [2] (pH 4.5, 4 hours); 94.87% in data set [2] (pH 4.5, 6 hours); 90.73% in data set [2] (pH 4.5, 1 day). Also, the “Stability in aqueous media at RT” value in data set [2] (pH 4.5, 2 days) is 84.24%; in data set [2] (pH 4.5, 7 days), 57.17%; in data set [2] (pH 4.5, time 0 (API Powder)) it was 97.21%; in data set [2] (pH 6.8, 30 Min), 91.08%; in data set [2] (pH 6.8, 1 hour), 87.32%; in data set [2] (pH 6.8, 2 hours), 80.70%. Also, the “Stability in aqueous media at RT” value is listed as 65.65% in data set [2] (pH 6.8, 4 hours); 57.40% in data set [2] (pH 6.8, 6 hours); 9.48% in data set [2] (pH 6.8, 1 day); 7.48% in data set [2] (pH 6.8, 2 days); 1.77% in data set [2] (pH 6.8, 7 days); 97.21% in data set [2] (pH 6.8, time 0 (API Powder)). The “Degradation of the API in aqueous media” value in data set [2] (aqueous media, RT, FIG. 4) is “significant short-term degradation”. Moreover, the “Powder stability, change on storage” value in data set [3] (3 months' storage at 2-4° C.) and in data set [3] (3 months' storage at RT) was “no significant change” in each case.
Turning to `CCCC(CCC)C(=O)Nc1ccn([C@@H]2O[C@H](CO)[C@@H](O)C2(F)F)c(=O)n1` [LY2334737], in the data set on Japanese patients, the Hepatic toxicity result was “unexpected hepatic toxicities”. Besides, the “Degradation by CDA” value on CDA was “significantly less prone to degradation by CDA”.
Regarding `Nc1ccn([C@@H]2O[C@H](CO)[C@@H](O)C2(F)F)c(=O)n1` [gemcitabine, Gemcitabine], the “Death or gastrointestinal toxicity after intravenous dosing” value in the data set with mice (comparable exposures via intravenous dosing) is “did not result in death or gastrointestinal toxicity”. In addition, the “Intestinal lesions after single oral dose” value in the data set on mice (single oral (gavage) dose of 167, 333, or 500 mg/kg, Horton et al. 2004) is reported as “moderate-to-marked loss of mucosal epithelium (atrophic enteropathy)”. Besides, in data set [4], the Oral bioavailability entry was “poor”.
